Measurements as given in ChEMBL document CHEMBL1201862, “PubChem BioAssay data set” (2004).
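Interpolation was linear, between the two tested concentrations surrounding the appropriate level; five concentrations were tested over 48 hours in 96-well plates. GI50 = concentration required for 50% inhibition of growth.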 The source made the active and inactive calls. Cut-off read from the data, not from the text of the source: active = GI50 up to about 1.1 µM and inactive = higher.

Experiments:
Assay in all cases: inhibition of tumour cell growth, NCI panel, 48 h
OVCAR-3 = test system: OVCAR-3
OVCAR-5 = test system: OVCAR-5
HL-60 = test system: HL-60
NCI/ADR-RES = test system: NCI/ADR-RES
ACHN = test system: ACHN
SK-MEL-2 = test system: SK-MEL-2
A549 = test system: A549
Hs-578T = test system: Hs-578T
NCI-H23 = test system: NCI-H23
IGROV-1 = test system: IGROV-1
KM12 = test system: KM12
MDA-MB-435 = test system: MDA-MB-435
SK-OV-3 = test system: SK-OV-3
SR = test system: SR
CCRF-CEM = test system: CCRF-CEM
HOP-62 = test system: HOP-62
NCI-H460 = test system: NCI-H460
MDA-N = test system: MDA-N
SF-539 = test system: SF-539
CAKI-1 = test system: CAKI-1
UACC-62 = test system: UACC-62
SK-MEL-5 = test system: SK-MEL-5
K562 = test system: K562
OVCAR-4 = test system: OVCAR-4
Malme-3M = test system: Malme-3M
MCF7 = test system: MCF7
HT-29 = test system: HT-29
786-0 = test system: 786-0
A498 = test system: A498
SNB-75 = test system: SNB-75
SF-268 = test system: SF-268
SNB-19 = test system: SNB-19
UACC-257 = test system: UACC-257
SF-295 = test system: SF-295
COLO 205 = test system: COLO 205
SK-MEL-28 = test system: SK-MEL-28
TK-10 = test system: TK-10
EKVX = test system: EKVX
HOP-92 = test system: HOP-92
BT-549 = test system: BT-549
M14 = test system: M14
HCT-15 = test system: HCT-15
SN12C = test system: SN12C
T47D = test system: T47D
LOX IMVI = test system: LOX IMVI
HCT-116 = test system: HCT-116
RPMI-8226 = test system: RPMI-8226
RXF 393 = test system: RXF 393
SW-620 = test system: SW-620
PC-3 = test system: PC-3
MDA-MB-231 = test system: MDA-MB-231
DU-145 = test system: DU-145
U-251 = test system: U-251
HCC 2998 = test system: HCC 2998
UO-31 = test system: UO-31
NCI-H226 = test system: NCI-H226
MOLT-4 = test system: MOLT-4
OVCAR-8 = test system: OVCAR-8

SMILES: [O-]c1c[n+](-c2ccccc2)no1
- GI50 (OVCAR-3): > 100 µM (inactive)
- GI50 (OVCAR-5): > 100 µM (inactive)
- GI50 (HL-60): > 100 µM (inactive)
- GI50 (NCI/ADR-RES): > 100 µM (inactive)
- GI50 (ACHN): > 100 µM (inactive)
- GI50 (SK-MEL-2): > 100 µM (inactive)
- GI50 (A549): > 100 µM (inactive)
- GI50 (Hs-578T): > 100 µM (inactive)
- GI50 (NCI-H23): > 100 µM (inactive)
- GI50 (IGROV-1): > 100 µM (inactive)
- GI50 (KM12): > 100 µM (inactive)
- GI50 (MDA-MB-435): > 100 µM (inactive)
- GI50 (SK-OV-3): > 100 µM (inactive)
- GI50 (SR): > 100 µM (inactive)
- GI50 (CCRF-CEM): > 100 µM (inactive)
- GI50 (HOP-62): > 100 µM (inactive)
- GI50 (NCI-H460): > 100 µM (inactive)
- GI50 (MDA-N): > 100 µM (inactive)
- GI50 (SF-539): > 100 µM (inactive)
- GI50 (CAKI-1): > 100 µM (inactive)
- GI50 (UACC-62): > 100 µM (inactive)
- GI50 (SK-MEL-5): > 100 µM (inactive)
- GI50 (K562): > 100 µM (inactive)
- GI50 (OVCAR-4): > 100 µM (inactive)
- GI50 (Malme-3M): > 100 µM (inactive)
- GI50 (MCF7): > 100 µM (inactive)
- GI50 (HT-29): > 100 µM (inactive)
- GI50 (786-0): > 100 µM (inactive)
- GI50 (A498): > 100 µM (inactive)
- GI50 (SNB-75): > 100 µM (inactive)
- GI50 (SF-268): > 100 µM (inactive)
- GI50 (SNB-19): > 100 µM (inactive)
- GI50 (UACC-257): > 100 µM (inactive)
- GI50 (SF-295): > 100 µM (inactive)
- GI50 (COLO 205): > 100 µM (inactive)
- GI50 (SK-MEL-28): > 100 µM (inactive)
- GI50 (TK-10): > 100 µM (inactive)
- GI50 (EKVX): > 100 µM (inactive)
- GI50 (HOP-92): > 100 µM (inactive)
- GI50 (BT-549): > 100 µM (inactive)
- GI50 (M14): > 100 µM (inactive)
- GI50 (HCT-15): > 100 µM
- GI50 (SN12C): > 100 µM (inactive)
- GI50 (T47D): > 100 µM (inactive)
- GI50 (LOX IMVI): > 100 µM (inactive)
- GI50 (HCT-116): > 100 µM (inactive)
- GI50 (RPMI-8226): > 100 µM (inactive)
- GI50 (RXF 393): > 100 µM (inactive)
- GI50 (SW-620): > 100 µM (inactive)
- GI50 (PC-3): > 100 µM (inactive)
- GI50 (MDA-MB-231): > 100 µM (inactive)
- GI50 (DU-145): > 100 µM (inactive)
- GI50 (U-251): > 100 µM (inactive)
- GI50 (HCC 2998): > 100 µM (inactive)
- GI50 (UO-31): > 100 µM (inactive)

SMILES: Nc1nccc2c1ncn2[C@H]1C[C@H](O)[C@@H](CO)O1
- GI50 (OVCAR-3): > 100 µM (inactive)
- GI50 (OVCAR-5): > 100 µM (inactive)
- GI50 (NCI/ADR-RES): > 100 µM (inactive)
- GI50 (SK-MEL-2): > 100 µM (inactive)
- GI50 (Hs-578T): > 100 µM (inactive)
- GI50 (NCI-H23): > 100 µM (inactive)
- GI50 (IGROV-1): > 100 µM (inactive)
- GI50 (KM12): > 100 µM (inactive)
- GI50 (MDA-MB-435): > 100 µM (inactive)
- GI50 (SK-OV-3): > 100 µM (inactive)
- GI50 (SR): > 100 µM (inactive)
- GI50 (CCRF-CEM): > 100 µM (inactive)
- GI50 (HOP-62): > 100 µM (inactive)
- GI50 (NCI-H226): > 100 µM (inactive)
- GI50 (NCI-H460): > 100 µM (inactive)
- GI50 (MDA-N): > 100 µM (inactive)
- GI50 (CAKI-1): > 100 µM (inactive)
- GI50 (UACC-62): > 100 µM (inactive)
- GI50 (SK-MEL-5): > 100 µM (inactive)
- GI50 (K562): > 100 µM (inactive)
- GI50 (OVCAR-4): > 100 µM (inactive)
- GI50 (Malme-3M): > 100 µM (inactive)
- GI50 (MCF7): > 100 µM (inactive)
- GI50 (HT-29): > 100 µM (inactive)
- GI50 (A498): > 100 µM (inactive)
- GI50 (SNB-75): > 100 µM (inactive)
- GI50 (SNB-19): > 100 µM (inactive)
- GI50 (UACC-257): > 100 µM (inactive)
- GI50 (SF-295): > 100 µM (inactive)
- GI50 (COLO 205): > 100 µM (inactive)
- GI50 (SK-MEL-28): > 100 µM (inactive)
- GI50 (TK-10): > 100 µM (inactive)
- GI50 (HOP-92): > 100 µM (inactive)
- GI50 (BT-549): > 100 µM (inactive)
- GI50 (M14): > 100 µM (inactive)
- GI50 (HCT-15): > 100 µM
- GI50 (SN12C): > 100 µM (inactive)
- GI50 (T47D): > 100 µM (inactive)
- GI50 (LOX IMVI): > 100 µM (inactive)
- GI50 (HCT-116): > 100 µM (inactive)
- GI50 (RPMI-8226): > 100 µM (inactive)
- GI50 (RXF 393): > 100 µM (inactive)
- GI50 (MOLT-4): > 100 µM (inactive)
- GI50 (SW-620): > 100 µM (inactive)
- GI50 (PC-3): > 100 µM (inactive)
- GI50 (OVCAR-8): > 100 µM (inactive)
- GI50 (MDA-MB-231): > 100 µM (inactive)
- GI50 (DU-145): > 100 µM (inactive)
- GI50 (U-251): > 100 µM (inactive)
- GI50 (HCC 2998): > 100 µM (inactive)
- GI50 (UO-31): > 100 µM (inactive)

SMILES: Cc1cn(CCCCCOC(=O)NC(CCCNC(N)=O)C(=O)O)c(=O)[nH]c1=O (configuration not stated)
- GI50 (OVCAR-3): > 100 µM (inactive)
- GI50 (OVCAR-5): > 100 µM (inactive)
- GI50 (HL-60): > 100 µM (inactive)
- GI50 (NCI/ADR-RES): > 100 µM (inactive)
- GI50 (ACHN): > 100 µM (inactive)
- GI50 (SK-MEL-2): > 100 µM (inactive)
- GI50 (A549): > 100 µM (inactive)
- GI50 (Hs-578T): > 100 µM (inactive)
- GI50 (NCI-H23): > 100 µM (inactive)
- GI50 (IGROV-1): 65.3 µM (inactive)
- GI50 (KM12): > 100 µM (inactive)
- GI50 (MDA-MB-435): > 100 µM (inactive)
- GI50 (SK-OV-3): > 100 µM (inactive)
- GI50 (SR): > 100 µM (inactive)
- GI50 (CCRF-CEM): > 100 µM (inactive)
- GI50 (HOP-62): > 100 µM (inactive)
- GI50 (NCI-H226): > 100 µM (inactive)
- GI50 (NCI-H460): > 100 µM (inactive)
- GI50 (MDA-N): > 100 µM (inactive)
- GI50 (SF-539): > 100 µM (inactive)
- GI50 (CAKI-1): > 100 µM (inactive)
- GI50 (UACC-62): > 100 µM (inactive)
- GI50 (K562): > 100 µM (inactive)
- GI50 (OVCAR-4): > 100 µM (inactive)
- GI50 (MCF7): > 100 µM (inactive)
- GI50 (HT-29): > 100 µM (inactive)
- GI50 (786-0): > 100 µM (inactive)
- GI50 (A498): > 100 µM (inactive)
- GI50 (SNB-75): > 100 µM (inactive)
- GI50 (SF-268): > 100 µM (inactive)
- GI50 (SNB-19): > 100 µM (inactive)
- GI50 (UACC-257): > 100 µM (inactive)
- GI50 (SF-295): > 100 µM (inactive)
- GI50 (COLO 205): > 100 µM (inactive)
- GI50 (SK-MEL-28): > 100 µM (inactive)
- GI50 (TK-10): > 100 µM (inactive)
- GI50 (EKVX): > 100 µM (inactive)
- GI50 (HOP-92): > 100 µM (inactive)
- GI50 (BT-549): > 100 µM (inactive)
- GI50 (M14): > 100 µM (inactive)
- GI50 (HCT-15): > 100 µM
- GI50 (SN12C): > 100 µM (inactive)
- GI50 (T47D): > 100 µM (inactive)
- GI50 (LOX IMVI): > 100 µM (inactive)
- GI50 (HCT-116): > 100 µM (inactive)
- GI50 (RPMI-8226): > 100 µM (inactive)
- GI50 (RXF 393): > 100 µM (inactive)
- GI50 (MOLT-4): > 100 µM (inactive)
- GI50 (SW-620): > 100 µM (inactive)
- GI50 (PC-3): > 100 µM (inactive)
- GI50 (OVCAR-8): > 100 µM (inactive)
- GI50 (MDA-MB-231): > 100 µM (inactive)
- GI50 (DU-145): > 100 µM (inactive)
- GI50 (U-251): > 100 µM (inactive)
- GI50 (HCC 2998): > 100 µM (inactive)
- GI50 (UO-31): > 100 µM (inactive)
